Reference: US4513008A, “Virucidal compositions and therapy” (The Vinoxen Company, Inc., priority 1982, dated 1985)
Values after ≈ are worked out from the molar mass of the structure shown.

Experiments:
HSV-2 = test: Separate experiments: speed of virus inhibition by DHA
[1] = Guinea pig toxicity controls (sham-infected, topical treatment); type: in vivo, guinea pigs; conditions: for Toxicity Controls Max. Irrit. Score: 0 to 4 scale
Method: Drugs. The substances tested consisted of four bottles labelled "A", "B", "C", and "D" with no identifying key. The samples were: A, 0.1 mg/ml DHA (0.003 mmol/ml); B, 5% w/w ACV (0.22 mmol/ml); C, 1 mg/ml DHA (0.03 mmol/ml); and D, 10 mg/ml DHA ([…]). […] All were treated as light-sensitive compounds.
Experimental Protocol. The guinea pigs were infected by applying a virus-soaked swab intravaginally, with agitation, for 20 seconds. Toxicity control animals were similar pretreated using swabs soaked in sterile Puck's balanced salt solution. Treatment began 20 hr later, with the compound or placebo applied topically intravaginally, perivaginally, and perianally using cotton swabs soaked in the respective substance. Treatment continued three times daily (8 a.m., noon, 4 p.m.) for 7 days. Ten infected animals were used for each coded substance, with twenty used for virus controls. Five sham-infected animals were concomitantly treated with each coded substance to serve as toxicity controls. Two guinea pigs were held separately to serve as normal untreated controls.
Each animal was observed daily for survival for a total of 28 days. On days 5 through 8 post-virus inoculation, the genital area was carefully examined and signs of irritation in the toxicity controls and lesion severity in injected animals was scored on a 0 to 4 scale using the same scale as in the mouse bioassay. The results were scored as average daily lesion (ADL) scores for each group, and as mean vaginal lesion (MVL) scores, calculated as the mean of the ADL scores for days 5-8. The maximum mean score for the toxicity control animals was also determined.

[2] = system: herpes simplex virus type 2 (HSV-2); test: In vitro HSV-2 bioassay: virucidal plaque assay (HEP-2 cells); type: cell-based, HSV-2 strain 333; conditions: for plaque count / titer: Table 3
Method: Evidence of the efficacy of the virucides of the invention in vitro has been obtained from bioassay using HSV-2, using a standard assay procedure. Serial dilutions of the compounds were tested for their ability to prevent plaque formation by a stock virus suspension. Reduction of plaque titer by test compounds as compared to mock treated controls was indicative of virucidal activity. […] These represent the upper limit for the drug concentration, since dilutions were not carried beyond 1:6400 and in some cases 1:12800.
Cell Culture. Cell cultures used for the propagation and titration of HSV-2 were the human diploid lung embryonic line MRC-5 and the human malignant epitheloid cell line HEP-2 respectively. Stock monolayer cultures of both cell lines were propagated in Dulbecco's Modified Eagle's medium (DME) supplemented with 10% (V/V) calf serum. Spinner cultures for mass production of HEP-2 cells were grown in Joklik's medium supplemented with 10% (V/V) calf serum and 1% (W/V) pluronic acid. Monolayer cultures of HEP-2 cells for plaque or virucidal assay were seeded into 60 mm dishes in DME supplemented with 10% calf serum and antibiotics. Stock cultures were maintained in antibiotic free medium.
Herpes simplex virus, type 2 (HSV-2) strain 333 was obtained from Dr. John Hughes of the Dept. of Medical Microbiology, College of Medicine, The Ohio State University. Stocks of HSV-2 were prepared in the human diploid embryonic lung cell line, MRC-5. Confluent MRC-5 monolayer cultures in T-75 plastic flasks were washed one time with Hank's and Balanced Salt solution (HBSS) and infected with 0.5 ml of HSV-2, strain 333 stock. Virus was adsorbed for 1 hour at 37° C. Then the culture was refed with 15 ml of DME supplemented with 1% (V/V) calf serum. Virus was harvested 48 hours later when cytopathology was complete. Cultures were frozen and thawed rapidly three times to release cell associated virus, clarified by centrifugation at 10,000×g for 15 minutes at 4° C., aliquoted into 5 ml lots and frozen at -70° C. One lot was taken for virus titration.
HSV-2 was titrated by plaque assay in HEP-2 cells under a semi-solid methyl cellulose overlay. Tenfold serial dilutions of virus were prepared in HBSS and 0.3 ml aliquots of each dilution inoculated onto triplicate HEP-2 cell monolayers in 60 mm plastic petri dishes. Adsorption of virus was for 1 hour at 37° C. Plates were then overlayed with 5 ml of a 1:1 mixture of 2×DME supplemented with 2% (V/V) calf serum and 3% (W/V) methyl cellulose to give a final 1×DME supplemented with 1% calf serum and 1.5% methylcellulose. Infected plates were incubated at 37° C. in a humidified 10% CO2 atmosphere for 48 hours. Virus plaques were visualized by staining with crystal violet and counted under a dissecting microscope. Virus titers were calculated from the plaque numbers by averaging the plaque count and multiplying by 3.3 (0.3 ml plates).
The following procedure was employed to assay virucidal activity in various test samples. Compounds were received as a solution in DMSO and were serially diluted in HBSS as described for each experiment. For the test, 1 ml of each dilution was mixed with 1 ml of a stock virus suspension diluted to approximately 9×10^3 plaque forming units (P.F.U.)/ml. This test mixture was incubated at 25° C. for 30 minutes, then inoculated onto a cell culture (HEP-2) for plaque assay as described previously. Mock treated (virus plus HBSS) controls were included with each test. Any reduction of plaque titer by test compounds as compared to the mock treated control was indicative of virucidal activity.
Samples from RP-HPLC fractionation of the CLOH, produced according to Example 2, as well as purified samples of palmitic, myristic and oleic acids and Vitamin D2, were tested for HSV-2 bioactivity. […] Pure oleic acid was not active in this assay, nor were palmitic and myristic acids and Vitamin D2. […]

[3] = Visually observed solubility in DMSO-HBSS; type: physicochemical; conditions: 1 mg in 1 ml of 70% DMSO-30% HBSS
Method: Vehicles. […] The DMSO-HBSS vehicle was selected based on the observed (visually) solubility of DHA in various DMSO-HBSS solutions. 1 mg DHA was soluble in 1 ml of 70% DMSO-30% HBSS.

SMILES: CCC=CCC=CCC=CCC=CCC=CCC=CCCC(=O)O [DHA, 4,7,10,13,16,19 Docosahexaenoic Acid]
- virus inhibited (HSV-2; within 30 seconds of contact): more than 98%
- virus inhibited (HSV-2; within 30 minutes of contact): > 99.99%
- Toxicity Controls Surv/Total ([1]; A: 0.1 mg/ml DHA in PEG-1000): 5/5
- Toxicity Controls Max. Irrit. Score ([1]; A: 0.1 mg/ml DHA in PEG-1000): 0.0
- Toxicity Controls Surv/Total ([1]; C: 1 mg/ml DHA in PEG-1000): 5/5
- Toxicity Controls Max. Irrit. Score ([1]; C: 1 mg/ml DHA in PEG-1000): 0.0
- Toxicity Controls Surv/Total ([1]; D: 10 mg/ml DHA in PEG-1000): 5/5
- Toxicity Controls Max. Irrit. Score ([1]; D: 10 mg/ml DHA in PEG-1000): 0.0
- MIC ([2]; Human alphaherpesvirus 2, 0.5 h, Table 4 run, 30 min at 25° C., upper limit, dilutions to 1:12800, read-out: MIC (lowest concentration producing a 3-log reduction in virus titer)): 0.47 µg/mL (≈ 1.43 µM)
- plaque count ([2]; dilution 1:10): 0
- titer ([2]; dilution 1:10, control titer 4.5 × 10^3): 0
- plaque count ([2]; dilution 1:100): 0
- titer ([2]; dilution 1:100): 0
- titer ([2]; dilution 1:400): 0
- plaque count ([2]; dilution 1:400, TNTC = too numerous to count): 0
- titer ([2]; dilution 1:800): 0
- plaque count ([2]; dilution 1:800, TNTC = too numerous to count): 0
- titer ([2]; dilution 1:1600): 0
- plaque count ([2]; dilution 1:1600, TNTC = too numerous to count): 0
- titer ([2]; dilution 1:3200): 0
- plaque count ([2]; dilution 1:3200, TNTC = too numerous to count): 0
- titer ([2]; dilution 1:6400): 0
- plaque count ([2]; dilution 1:6400, TNTC = too numerous to count): 0
- titer ([2]; dilution 1:12800): 0
- plaque count ([2]; dilution 1:12800, TNTC = too numerous to count): 0
- virucidal activity against HSV-2 in words ([2]; in vitro bioassay): potent and fast-acting virucides
- solubility [3]: soluble
